Measurements: ChEMBL document CHEMBL3763033, “New quinoline derivatives as nicotinic receptor modulators” (Eur J Med Chem, 2016)
The source made the active and inactive calls. The calls are words filed in the database; no cut-off is given here.

What was measured:
[1] = Displacement of [3H]methyllycaconitine from Sprague-Dawley rat brain alpha7* nAChR incubated for 2.5 hrs by liquid scintillation counting analysis; format: tissue-based
[2] = target: T1, Neuronal acetylcholine receptor subunit alpha-7 (Homo sapiens, UniProt P36544); experiment: Agonist activity at human alpha7 receptor expressed in mouse Neuro2a cells assessed as induction of intracellular calcium level preincubated with PNU-120596 for 20 mins followed by compound addition measured every 2 sec for 3 mins by fluorescence microplate reader analysis; format: cell-based
T1 sequence (P36544 whole entry): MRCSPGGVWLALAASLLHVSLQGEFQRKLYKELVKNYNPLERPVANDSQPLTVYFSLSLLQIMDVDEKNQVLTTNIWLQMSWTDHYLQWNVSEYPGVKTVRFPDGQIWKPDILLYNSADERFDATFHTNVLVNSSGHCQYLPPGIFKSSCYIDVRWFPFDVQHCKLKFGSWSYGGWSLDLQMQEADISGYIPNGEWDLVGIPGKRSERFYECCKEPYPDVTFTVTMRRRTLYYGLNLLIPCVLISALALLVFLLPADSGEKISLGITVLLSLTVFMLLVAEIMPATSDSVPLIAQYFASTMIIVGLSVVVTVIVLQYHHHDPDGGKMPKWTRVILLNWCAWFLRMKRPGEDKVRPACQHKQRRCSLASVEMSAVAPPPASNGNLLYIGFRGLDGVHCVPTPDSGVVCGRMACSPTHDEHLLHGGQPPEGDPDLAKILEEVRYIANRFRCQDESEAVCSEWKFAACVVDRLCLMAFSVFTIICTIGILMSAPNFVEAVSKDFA

[3] = organism: Rattus norvegicus; experiment: Selectivity ratio of Ki for Wistar rat cerebral cortex alpha4beta2* nAChR to Ki for Sprague-Dawley rat brain alpha7* nAChR; format: tissue-based
[4] = organism: Rattus norvegicus; experiment: (§1) Antagonist activity at rat alpha4beta2* nAChR expressed in Xenopus oocytes assessed as inhibition of epibatidine-induced ion current at 50 uM preincubated with compound followed by 1 uM epibatidine addition along with compound treatment measured after 36 to 72 hrs by two electrode voltage clamp method; format: cell-based
[5] = target: T1, Neuronal acetylcholine receptor subunit alpha-7; experiment: Agonist activity at human alpha7 receptor expressed in mouse Neuro2a cells assessed as induction of intracellular calcium level measured every 2 sec for 3 mins by fluorescence microplate reader analysis in presence of 2 uM alpha7 receptor antagonist alpha-cobratoxin; format: cell-based
[6] = Displacement of [3H]cytisine from Wistar rat cerebral cortex alpha4beta2* nAChR incubated for 75 mins by competition binding assay; format: tissue-based
[7] = organism: Rattus norvegicus; experiment: Activation of rat alpha4beta2* nAChR expressed in Xenopus oocytes at 50 uM after 36 to 72 hrs by two electrode voltage clamp method; format: cell-based
[8] = organism: Gallus gallus; experiment: Activation of chicken alpha7/GlyR chimeric receptor expressed in Xenopus oocytes at 50 uM after 36 to 72 hrs by two electrode voltage clamp method; format: cell-based
[9] = organism: Gallus gallus; experiment: as §1, with “chicken alpha7/GlyR chimeric receptor” for “rat alpha4beta2* nAChR”, “acetylcholine-induced” for “epibatidine-induced”, “100” for “1”, “acetylcholine” for “epibatidine”; format: cell-based
[10] = organism: Rattus norvegicus; experiment: Displacement of [3H]methyllycaconitine from Sprague-Dawley rat brain alpha7* nAChR at 1 uM incubated for 2.5 hrs by liquid scintillation counting analysis; format: tissue-based
[11] = organism: Rattus norvegicus; experiment: Displacement of [3H]cytisine from Wistar rat cerebral cortex alpha4beta2* nAChR at 1 uM incubated for 75 mins by competition binding assay; format: tissue-based
[12] = organism: Rattus norvegicus; experiment: Selectivity ratio of Ki for Sprague-Dawley rat brain alpha7* nAChR to Ki for Wistar rat cerebral cortex alpha4beta2* nAChR; format: tissue-based
[13] = target: T1, Neuronal acetylcholine receptor subunit alpha-7; experiment: (§2) Antagonist activity at human alpha7 receptor expressed in mouse Neuro2a cells assessed as inhibition of acetylcholine iodide-induced intracellular calcium level at 300 uM preincubated with PNU-120596 for 20 mins followed by acetylcholine iodide addition along with compound treatment measured every 2 sec for 3 mins by fluorescence microplate reader analysis; format: cell-based
[14] = target: T1, Neuronal acetylcholine receptor subunit alpha-7; experiment: as §2, with “50” for “300”; format: cell-based

SMILES | Activity [10] [%] | Activity [11] [%] | further results
c1cnc2cc(N3CCN4CCC3CC4)ccc2c1 | – | – | Ki [1]: 0.117 µM; EC50 [2]: 1.09 µM; Ratio Ki [3]: 3; inhibition [4]: Active; Activity [5]: inactive; Ki [6]: > 1 µM; Activity [7]: inactive; Activity [8]: inactive; inhibition [9]: Active
CCN1C[C@]2(COC(=O)c3ccccc3N3C(=O)CC(C)C3=O)CC[C@H](OC)[C@@]34C2[C@H](OC)[C@](O)(C13)[C@@]1(O)C[C@H](OC)[C@H]2C[C@@H]4[C@@H]1[C@H]2OC (stereo not given in full) | – | – | Ki [1]: 0.0014 µM
C[N+]12CCC(CC1)N(C(=O)c1ccc3ncccc3c1)CC2 | < 20 | < 20 | –
C[N+]12C=C(c3ccc4ncccc4c3)C(CC1)CC2 | < 20 | < 20 | –
O=C(N[C@H]1CN2CCC1CC2)c1cc2cccc(Cl)c2s1 [ENCENICLINE] | – | – | Ki [1]: 0.00998 µM
c1cnc2cc(N3CCN4CCC3C4)ccc2c1 (stereo not given) | < 20 | < 20 | –
O=C(c1ccc2ncccc2c1)N1CCN2CCC1CC2 | < 20 | < 20 | –
O=C(c1cccc2cnccc12)N1CCN2CCC1CC2 | < 20 | < 20 | –
c1cncc(C2CCC3CCN2CC3)c1 (stereo not given) | – | – | Ki [1]: 0.011 µM
C[N+]12CCC(CC1)C(NC(=O)c1ccc3cccnc3c1)C2 (stereo not given) | < 20 | < 20 | –
c1cc(N2CCN3CCC2C3)c2cccnc2c1 (stereo not given) | < 20 | < 20 | –
C[N+]12CCC(C1)N(c1ccc3cnccc3c1)CC2 (stereo not given) | < 20 | < 20 | –
c1cnc2ccc(N3CCN4CCC3CC4)cc2c1 | – | – | Ki [1]: 0.096 µM; EC50 [2]: 1.41 µM; Ratio Ki [3]: 10; inhibition [4]: Active; Activity [5]: inactive; Ki [6]: > 1 µM; Activity [7]: inactive; Activity [8]: inactive; inhibition [9]: Active
C[N+]12CCC(C1)N(C(=O)c1cccc3cnccc13)CC2 (stereo not given) | < 20 | < 20 | –
C1=C(c2ccc3ncccc3c2)C2CCN1CC2 | < 20 | < 20 | –
O=C(NC1CN2CCC1CC2)c1ccc2ncccc2c1 (stereo not given) | < 20 | < 20 | –
CN1CCC[C@H]1c1cccnc1 [NICOTINE] | – | – | Ki [6]: 0.0023 µM
O=C(c1ccc2ncccc2c1)N1CCN2CCC1C2 (stereo not given) | < 20 | < 20 | –
O=C(Oc1ccc(Br)cc1)N1CCN2CCC1CC2 [SSR180711] | – | – | Ki [1]: 0.022 µM
C[N+]12CCC(CC1)C(NC(=O)c1ccc3ncccc3c1)C2 (stereo not given) | < 20 | < 20 | –

SMILES | Activity [10] [%] | Activity [11] [%] | further results
C[N+]12CCC(C1)N(C(=O)c1ccc3ncccc3c1)CC2 (stereo not given) | < 20 | < 20 | –
C[N+]12CCC(CC1)N(C(=O)c1cccc3cnccc13)CC2 | < 20 | < 20 | –
c1cc(N2CCN3CCC2CC3)c2cccnc2c1 | < 20 | < 20 | –
c1cnc2ccc(N3CCN4CCC3C4)cc2c1 (stereo not given) | – | – | Ki [1]: > 1 µM; inhibition [4]: Active; Ratio Ki [12]: 2; Ki [6]: 0.412 µM; Activity [7]: inactive; Activity [8]: inactive; inhibition [13]: Active; inhibition [9]: Active
O=C(N[C@H]1CN2CCC1CC2)c1ccc(Cl)cc1 [PNU-282987] | – | – | Ki [1]: 0.024 µM
C[N+]12CCC(C1)N(c1ccc3ncccc3c1)CC2 (stereo not given) | < 20 | < 20 | –
O=C(c1ccc2cccnc2c1)N1CCN2CCC1C2 (stereo not given) | < 20 | < 20 | –
c1cnc2ccc(C3CN4CCC3CC4)cc2c1 (stereo not given) | < 20 | < 20 | –
O=C(c1cccc2cnccc12)N1CCN2CCC1C2 (stereo not given) | < 20 | < 20 | –
C[N+]12CCC(CC1)C(NC(=O)c1cccc3cnccc13)C2 (stereo not given) | < 20 | < 20 | –
Cc1ccc2oc(N3CCN4CCC3CC4)nc2n1 | – | – | Ki [1]: 0.0135 µM
c1cc2cc(N3CCN4CCC3C4)ccc2cn1 (stereo not given) | < 20 | < 20 | –
O=C(NC1CN2CCC1CC2)c1ccc2cccnc2c1 (stereo not given) | – | – | Ki [1]: 0.287 µM; EC50 [2]: 1.57 µM; Ratio Ki [3]: 3; inhibition [4]: Active; Activity [5]: inactive; Ki [6]: > 1 µM; Activity [7]: inactive; inhibition [14]: Active; Activity [8]: inactive; inhibition [9]: Active
O=C(c1ccc2cccnc2c1)N1CCN2CCC1CC2 | < 20 | < 20 | –
C[N+]12CCC(CC1)N(C(=O)c1ccc3cccnc3c1)CC2 | < 20 | < 20 | –
c1cc2cc(N3CCN4CCC3CC4)ccc2cn1 | – | – | Ki [1]: 0.248 µM; Ratio Ki [3]: 3; Ki [6]: > 1 µM
C[N+]12CCC(C1)N(C(=O)c1ccc3cccnc3c1)CC2 (stereo not given) | < 20 | < 20 | –
O=C(NC1CN2CCC1CC2)c1cccc2cnccc12 (stereo not given) | < 20 | < 20 | –
C[N+]12CCC(C1)N(c1cccc3ncccc13)CC2 (stereo not given) | < 20 | < 20 | –
